Assay results from article PMC12649225, “Machine Learning-Identified Potent Antimicrobial Peptides Against Multidrug-Resistant Bacteria and Skin Infections” (Antibiotics, 2025).
Where two headings read alike, the source gives them in different places. Residues, ends and D or L forms follow the SMILES beside them.

How the values were obtained:
[1] = tested on: BJ human skin fibroblast cells; test: LDH leakage assay (membrane integrity); details: lowest concentration causing >30% LDH leakage; BJ fibroblasts; 24 h; DMEM with 2% FBS; 0.05-60 µM
Method: BJ human skin fibroblast cells (ATCC CRL-2522; RRID: CVCL_3653; LGC Standards, Germany (September 2023)) were cultured in Dulbecco’s Modified Eagle Medium (DMEM; Gibco, Waltham, MA, USA) supplemented with 10% (v/v) foetal bovine serum (FBS; Sigma-Aldrich) and 1% (v/v) penicillin/streptomycin (pen/strep; Gibco). Cell suspensions (5 × 10^5 cells/mL) were seeded into 96-well plates (100 μL/well; Thermo Scientific, Waltham, MA, USA) and allowed to adhere for 24 h. Monolayers were then exposed to two-fold serial dilutions of GDST peptides, their RI variants, and reference peptides (final concentrations: 0.05 to 60 µM) in fresh DMEM with 2% (v/v) FBS for 24 h at 37 °C in a humidified atmosphere with 5% CO2.
Cell viability and membrane integrity were assessed using the water-soluble tetrazolium salt (WST-1; Roche, Basel, Switzerland) assay and the lactate dehydrogenase (LDH; Abcam, Cambridge, UK) assay, respectively, according to manufacturer instructions. Results were expressed as percentages of metabolic activity and LDH leakage relative to untreated control cells and the positive lysis control, respectively. The cytotoxic concentration was defined as the lowest peptide concentration causing <70% metabolic activity and >30% LDH leakage. All experiments were performed in triplicate.

A. baumannii RUH875 [2] = tested on: A. baumannii RUH875
Method: (§1) Bacteria incubated in PBS alone served as no-treatment controls. At five time points (1, 2, 5, 30, and 120 min), duplicate 50 µL samples were taken and immediately mixed with 50 µL of 0.05% (v/v) sodium polyanethol sulfonate (SPS; Sigma-Aldrich) in PBS to neutralize residual peptide activity. The number of viable bacteria was quantified by plating 10 µL aliquots of serial 10-fold dilutions onto sheep blood agar plates. Colonies were counted after 24 h of incubation at 37 °C.

S. aureus JAR060131 [3] = tested on: S. aureus JAR060131
Method: as §1

A. baumannii RUH875 [4] = test: SYTOX Green membrane permeabilization assay; type: cell-based, Acinetobacter baumannii; details: RPMI, 1 μM SYTOX Green; for SYTOX fluorescence intensity, A. baumannii: 1- and 2-fold the LC99.9_2h concentrations, over 90 min; for Concentrations inducing membrane permeabilization / SYTOX uptake: 90 min, 37 °C
Method: Control samples were exposed to RPMI only. As a positive control, heat-killed bacteria were incubated at 95 °C for 10 min to induce maximum membrane permeabilization. Fluorescence (excitation: 485 nm, emission: 520 nm) was monitored every minute for 90 min at 37 °C using a […] plate reader (Ortenberg, Germany), with peptides and positive controls added after the third cycle. Background fluorescence (SYTOX Green alone) was subtracted from all values. All assays were performed in triplicate and repeated twice independently.

[5] = tested on: S. aureus JAR060131 biofilm; test: Biofilm killing; type: cell-based, Staphylococcus aureus; details: for Concentration giving ≥3-log reduction of S. aureus biofilm CFU within 2 h / Concentration giving complete eradication of S. aureus biofilm within 24 h: 24 h biofilm; for Concentration giving ≥3-log reduction of S. aureus biofilm CFU within 2 h: 2 h treatment in PBS; for Concentration giving complete eradication of S. aureus biofilm within 24 h: 24 h treatment in PBS; for Concentration giving ≥3-log reduction of S. aureus biofilm CFU within 24 h: 24 h treatment, >3 log for BP2 and pexiganan
Method: Mid-logarithmic phase cultures of A. baumannii RUH875 or S. aureus JAR060131 were diluted to 1 × 10^8 CFU/mL in RPMI supplemented with 1% glucose. A total of 100 μL of each suspension was added to flat-bottom polystyrene 96-well microplates (Costar) and incubated under static conditions at 37 °C in a humidified atmosphere for 24 h to allow biofilm formation. After 24 h, planktonic bacteria were removed, and wells were carefully washed with 100 μL PBS [60]. […] Control samples were exposed to 100 μL of PBS only.
Biofilms were treated at 37 °C for either 2 or 24 h. […] Plates were sealed and sonicated for 5 min (Elmasonic, Singen, Germany; 45 kHz) at room temperature to dislodge adherent bacteria. […] Quantitative cultures were performed by plating serial 10-fold dilutions on sheep blood agar, and results were expressed as log10 CFU per well. The lower limit of detection was three CFU. Each condition was tested in six replicates.

S. aureus JAR060131 [6] = test: 3D human skin equivalent (HSE) infection model; type: cell-based, Staphylococcus aureus; details: for Concentration giving significant reductions in adherent S. aureus in HSE / Concentration eradicating adherent S. aureus in HSE: adherent fraction; for Concentration giving significant reductions in adherent S. aureus in HSE: p < 0.001
Method: Human keratinocytes (Ker-CT cell line; ATCC CRL-4048; RRID: CVCL_S877; ATCC, Manassas, VA, USA (October 2017)) were used to generate human skin equivalents (HSEs) following the method described by Gent et al.. Briefly, HSEs were cultured for 12 days, after which the culture medium was replaced with antibiotic-free medium, and cells were grown for an additional two days before infection (Figure S2). On the day of infection, HSEs were inoculated with 300 µL of S. aureus JAR060131 suspension (3 × 10^5 CFU) and incubated for 1 h at 37 °C with 5% CO2. Following incubation, the bacterial suspension was removed, and HSEs were washed once with 500 µL PBS. HSEs were then treated for 4 h with PBS (control), GDST-038, GDST-045, their RI variants, or the reference peptide SAAP-148 at concentrations of 3.75, 15, and 60 μM, in triplicate. Subsequently, supernatants containing planktonic (non-adherent) bacteria were collected and kept on ice. Peptide activity was neutralized by adding SPS (final concentration: 0.025% (v/v)). Adherent bacteria within HSEs were quantified by homogenizing the tissues in 0.5 mL PBS containing 0.025% (v/v) SPS, using five zirconia beads (Ø 2 mm; BioSpec Products, Bartlesville, OK, USA) in a MagNA Lyser System (Roche) for three cycles of 30 sec at 7000 rpm, with 30 sec cooling intervals on ice. Both supernatants and homogenized fractions were serially diluted, plated on blood agar, and incubated overnight at 37 °C to determine CFU counts.

[7] = 4 h peptide exposure, tested 3.75, 15, 60 μM
[8] = at all tested concentrations (3.75 µM, 15 µM, and 60 µM), 4 h

Compound	Cytotoxicity LDH Leakage >30% [1]	Time to complete killing of A. baumannii (A. baumannii RUH875 [2]; 3.75 μM)	Time to complete killing of S. aureus (S. aureus JAR060131 [3]; 3.75 μM)	SYTOX fluorescence intensity, A. baumannii (A. baumannii RUH875 [4])	Concentration giving ≥3-log reduction of S. aureus biofilm CFU within 2 h [5]	Concentration giving complete eradication of S. aureus biofilm within 24 h [5]	Concentration giving significant reductions in adherent S. aureus in HSE (S. aureus JAR060131 [6]; 4 h)	Effect on non-adherent S. aureus in HSE (S. aureus JAR060131 [6]; at 15 µM and 60 µM, 4 h)	Concentration giving ≥3-log reduction of S. aureus biofilm CFU within 24 h [5]	Concentrations inducing membrane permeabilization / SYTOX uptake (A. baumannii RUH875 [4])	CFU reduction of non-adherent S. aureus in HSE (S. aureus JAR060131 [6]; 15 µM, 4 h, non-adherent fraction)	Concentration eradicating adherent S. aureus in HSE (S. aureus JAR060131 [6]; [7])	Concentration reducing non-adherent S. aureus to below the detection limit in HSE (S. aureus JAR060131 [6]; non-adherent fraction, 4 h peptide exposure, tested 3.75, 15, 60 μM)	Time to complete killing of S. aureus (S. aureus JAR060131 [3]; 1.88 μM)	Effect on non-adherent S. aureus in HSE (S. aureus JAR060131 [6]; [8])	Time to complete killing of A. baumannii (A. baumannii RUH875 [2]; 1.88 μM)	Killing of A. baumannii within 5 min (A. baumannii RUH875 [2]; 1.88 μM, PBS, 5 min)	Killing of S. aureus within 5 min (S. aureus JAR060131 [3]; 1.88 μM, PBS, 5 min)	S. aureus biofilm CFU reduction within 2 h ([5]; 2 h treatment, concentration not given)
CC[C@@H](C)[C@@H](NC(=O)[C@@H](CC(C)C)NC(=O)[C@@H](CCCCN)NC(=O)[C@@H](CCCCN)NC(=O)[C@H](NC(=O)[C@@H](Cc1c[nH]c2ccccc12)NC(=O)[C@@H](CCCNC(=N)N)NC(=O)[C@@H](Cc1ccccc1)NC(=O)[C@@H](CC(C)C)NC(C)=O)C(C)C)C(=O)N[C@H](CCCCN)C(=O)N[C@@H](C(=O)N[C@H](Cc1c[nH]c2ccccc12)C(=O)N[C@H](CCCNC(=N)N)C(=O)N[C@H](CCCCN)C(N)=O)C(C)C [GDST-045-RI] (HELM PEPTIDE1{[ac].[dL].[dF].[dR].[dW].[dV].[dK].[dK].[dL].[dI].[dK].[dV].[dW].[dR].[dK].[am]}$$$$V2.0; N-terminus and C-terminus assumed)	3.75 µM	≤ 120 min	≤ 30 min	fluorescence levels similar to heat-killed controls	≥ 30 µM	120 µM	15 µM	significant bacterial reductions	–	–	–	–	–	–	–	–	–	–	–
CC[C@@H](C)[C@@H](NC(=O)[C@@H](C)NC(=O)[C@@H](CCCCN)NC(=O)[C@@H](CCCCN)NC(=O)[C@@H](Cc1c[nH]c2ccccc12)NC(=O)[C@@H](Cc1c[nH]c2ccccc12)NC(=O)[C@@H](CCCNC(=N)N)NC(=O)[C@@H](CC(C)C)NC(=O)[C@@H](CC(C)C)NC(C)=O)C(=O)N[C@H](CCCCN)C(=O)N[C@@H](C(=O)N[C@H](Cc1c[nH]c2ccccc12)C(=O)N[C@H](CCCNC(=N)N)C(=O)N[C@H](CCCCN)C(N)=O)C(C)C [GDST-038-RI] (HELM PEPTIDE1{[ac].[dL].[dL].[dR].[dW].[dW].[dK].[dK].[dA].[dI].[dK].[dV].[dW].[dR].[dK].[am]}$$$$V2.0; N-terminus and C-terminus assumed)	3.75 µM	120 min	≤ 2 min	fluorescence levels similar to heat-killed controls	–	–	60 µM	significant bacterial reductions	≥ 60 µM	–	–	–	–	–	–	–	–	–	–
Ac-LKRVWKRVFKLLKRYWRQLKKPVR-NH2 (N-terminus and C-terminus assumed) [SAAP-148, reference compound]	1.88 µM	–	–	–	–	–	–	–	–	0.47 to 3.75 µM	3 log CFU	60 µM	60 µM	–	–	–	–	–	–
Ac-KRWVKILKKVWRFL-NH2 [GDST-045]	3.75 µM	–	–	fluorescence levels similar to heat-killed controls	≥ 7.5 µM	≥ 30 µM	–	–	–	–	–	15 µM	–	≤ 2 min	completely eradicated	–	–	–	–
Ac-KRWVKIAKKWWRLL-NH2 [GDST-038]	3.75 µM	–	–	fluorescence levels similar to heat-killed controls	≥ 60 µM	–	–	–	120 µM	0.47 µM	–	15 µM	–	≤ 5 min	completely eradicated	≤ 5 min	> 90%	> 90%	5.1 log CFU
